Results on 87 compounds are retold here after a melting point compilation (Tetko et al.; mined from patent text by program, amines drawn as free bases though some values may be those of a salt).

By melting point is commonly meant the temperature of the solid-liquid transition. On to `CC(=O)Nn1cnn(C2CCc3ccccc3C2)c1=S` (configuration not stated), for which the melting point lay within 199 to 201 °C.
Under `CCCNC(=O)c1cnc2c(c1O)CN(C(=O)OCC)CC2` stands 199 to 201 °C; under `CC(C)(C)c1ccc(C(O)CCCN2CCC(C(O)c3nc4ccccc4n3Cc3ccc(F)cc3)CC2)cc1` (configuration not stated), 87 to 90 °C.
`CCOC(=O)CCc1ccc(C)nc1` yielded a melting point of 36 to 37 °C.
For `CCC(CC)(CO)c1cc(Cl)nnc1Cl`, the melting point lay within 85 to 87 °C.
For the compound `O=C(O)c1cn(-c2ccc(F)cc2)c(-c2ccc(O)cc2)cc1=O`, the melting point lay within 185 to 193 °C.
Compound `C=CC(CC(O)C(CC1CCCCC1)NC(=O)C(Cc1ncc[nH]1)NC(=O)C(Cc1ccccc1)NC(=O)C(N)COC(C)(C)C)C(C)C` (configuration not stated) registered a melting point of 103 °C.
In the case of `COC(=O)c1cc(Cl)cc2c1OC(C)(C)C(=O)N2` it was 178 to 179 °C.
Compound `CSc1nc(CC2CCN(c3ccccc3)CC2)nc(C(=O)NCC(=O)O)c1O` returned a melting point of 156 to 157 °C.
`Nc1ccc(-c2cc(OCCCCCC(=O)O)nc(-c3ccccc3)c2)cc1`: the melting point fell in the range of 131 to 133 °C.
On to `CSc1ncc(Cc2cnc3ccccc3c2)c(=O)[nH]1`, for which the melting point fell in the range of 220 to 221 °C.
Take `O=C(NCCCc1cccc2oc(CCCCc3ccccc3)cc12)C1CC1`: the melting point lay in the range of 70 to 71 °C.
Under `Cn1nc(-c2cccc(N3Cc4cc(C(C)(C)C)ccc4C3=O)c2CO)cc(Nc2ccn(C3CNC3)n2)c1=O` stands 202 to 204 °C; under `O=C(O)c1ccccc1Nc1cccc(/C=C/c2nc3ccccc3s2)c1`, 146 to 150 °C.
`CCCCCCCCCCCCCCCCCCN(C)c1ccc(N)cc1C(=O)O` came in with a melting point of 81 to 83 °C.
Compound `COC(=O)CCC(CCCCNS(=O)(=O)c1ccc(Cl)cc1)CCCc1cccnc1` (configuration not stated) showed a melting point of 81 to 82 °C.
The compound `O=C(Nc1cnc2c(c1)nc1n2CCCC1)c1cc2cc(C(F)(F)F)ccc2n1Cc1cccc(F)c1` returned a melting point of 262 to 263 °C.
Compound `Nc1cc(C(=O)O)cc(S(N)(=O)=O)c1-c1ccccc1` had a melting point of 232 to 237 °C.
Consider `CNN(C)C(=S)Nc1ccc(Cl)cc1`, for which the melting point lay in the range of 103 to 104 °C.
Under `CC(C)c1cccc(C(C)C)c1NC(=O)NCCN1CCN(CCSc2nc3ccccc3s2)CC1` stands 147 to 149 °C.
`CC(O)N(C)C(=O)c1cc(C(C)(C)C)c(O)c(C(C)(C)C)c1` (configuration not stated) yielded a melting point of 161 to 164 °C.
For the compound `CC(C)[C@H](NC(=O)OCc1csc(N(C)C)n1)C(=O)N[C@@H](Cc1ccccc1)C[C@H](O)[C@H](Cc1ccccc1)NC(=O)OCc1cncs1`, the melting point lay within 162 to 165 °C.
Take `CC12CC(NC(=O)OCC(Cl)(Cl)Cl)C3C(CCC4CC(O)CCC43C)C1CCC2C(=O)O` (configuration not stated): the melting point fell in the range of 212 to 220 °C.
For `O=C(COC(=O)c1nocc1Br)NCCO[N+](=O)[O-]`, the melting point fell in the range of 98 to 99 °C.
Compound `COc1ccc2c(Cl)nncc2c1` displayed a melting point of 181 to 183 °C.
`FC(F)(F)c1cccc(-c2cnnn2-c2cc(Cl)ccc2OCc2nnn[nH]2)c1` registered a melting point of 181 to 184 °C.
`[N-]=[N+]=NCCO/N=C(\C(=O)O)c1csc(N)n1` had a melting point of 180 °C.
Take `Cc1ccccc1-c1cnc2c(C(F)(F)F)cccc2c1-c1cccc(NC(=O)Nc2ccccc2F)c1`: the melting point fell in the range of 218 to 220 °C.
Consider `COc1ccc2c(c1)C(=O)c1cc(CC(=O)O)ccc1SC2`, for which the melting point is 155 to 157 °C.
`Cc1ccc(-c2cc(C(F)(F)F)nn2-c2ccc(S(=O)(=O)NO)cc2)cc1` showed a melting point of 203 °C.
Compound `O=C(O)c1ccc(N2CCSCC2)cc1` showed a melting point of 233 to 235 °C.
In turn, `CC(=O)N1CCN(C(C)c2ccc(-c3ccc(Cl)cc3)cc2)CC1` (configuration not stated) showed a melting point of 120 to 121 °C.
Turning to `COC[C@H]1CN(c2ccc3nc([C@@H](O)CCC#N)sc3c2)C(=O)O1`, the melting point was in the range of 74 to 75 °C.
`Nc1ccc2c(c1)CC(CC(=O)O)C2=O` (configuration not stated) returned a melting point of 192 to 194 °C.
The compound `O=C1c2c(O)ccc(O)c2-c2nn(CC(O)CO)c3ccc(NCCNCCO)c1c23` (configuration not stated) had a melting point of 184 to 188 °C.
Regarding `C=CCN(C=O)c1ccc([N+](=O)[O-])cc1C`, the melting point came to 56 °C.
In the case of `O=C(Nc1nnc(CC2CC2)o1)C1c2ccccc2Oc2ccccc21` it was 140 to 141 °C; in that of `CON(C)C(=O)Nc1ccc(OCCc2ccc(C)cc2C)cc1`, 95 to 95.5 °C.
`O=c1c2ccccc2c(-c2ccccc2)cn1CCCCl` registered a melting point of 138 °C.
The compound `c1ccc2c(c1)-c1ccccc1C2Cc1nc(COc2ccc(CCCn3ccnc3)cc2)co1` had a melting point of 145 to 146 °C.
Compound `Fc1ccc(Nc2ncnc3cc(-c4ccco4)ccc23)cc1Cl` displayed a melting point above 250 °C.
Under `O=S(=O)(Nc1ccc(Cl)cc1Oc1ccc(Cl)cc1Cl)C(F)(F)F` stands 97 to 98 °C; under `COCCOCCOc1ccc2c(c1)S(=O)(=O)N(CCl)C2=O`, 113 to 115 °C; under `COc1ccc2c(c1)NC(=O)CC(C(=O)O)C2` (configuration not stated), 202 to 204 °C.
`C[Si](C)(C)Oc1nc(-c2ccccc2)nc2c1CC(S(=O)(=O)c1ccccc1)CC2` (configuration not stated) had a melting point above 250 °C.
For the compound `COCCN(C)S(=O)(=O)c1ccccc1Nc1nc(Nc2cc3c(cc2OC)CCN(CC(=O)N(C)C)CC3)ncc1Cl`, the melting point lay within 67 to 76 °C.
Under `CC1(C)SC2C(NC(=O)Cc3ccccc3)C(=O)N2C1NC(=O)OCC(Cl)(Cl)Cl` (configuration not stated) stands 223 to 224 °C; under `Nc1nccn2c(C3CCC3)nc(-c3ccccc3)c12`, 164 to 166 °C.
The compound `CCCCc1nnc(S(=O)Cc2ccc(OC)cc2)n1Cc1ccc(OC(C(=O)O)c2ccccc2)cc1` (configuration not stated) yielded a melting point of 74 to 75 °C.
On to `CCOC(=O)N1CCc2nc3ccccc3c(C)c2CC1`, for which the melting point was 125 °C.
The compound `CCCCOC(=O)c1ccc(F)nc1N` yielded a melting point of 132 to 134 °C.
`CC(=O)c1cc(F)c(OCCOc2ccc3ccccc3c2)c(F)c1` registered a melting point of 108 to 110 °C.
Compound `CC1CC2=CC(=O)CCC2C2C(F)CC3(C)C(OCc4ccc(S(N)(=O)=O)cc4)CCC3C12` (configuration not stated) registered a melting point of 232 °C.
Turning to `CCCC(NS(=O)(=O)c1ccc(Cl)cc1)C(=O)Nc1ccc(CC(=O)O)cc1` (racemic), the melting point is 202 to 204 °C.
Under `Nc1nc(N)c2cc(Cc3ccc(Cl)c(Cl)c3)ccc2n1` stands 150 to 151 °C; under `FC(F)(F)Oc1cccc(COc2cccc(-c3nnc(Nc4ccc(Cl)c(Cl)c4)s3)c2)c1`, 166 to 167 °C; under `CN1CCC=C(c2nc(NC=O)sc2Cl)C1`, 193 °C.
As to `Cc1ccccc1-c1cc(=O)c(C)c(-c2ccccc2)n1-c1ccccc1`, the melting point is 188 to 191 °C.
As for `Nc1nc2c(ncn2[C@H]2C=C[C@@H](O)CC2)c(=O)[nH]1` (racemic), the melting point was above 300 °C.
The compound `CCCCCCCCCCCCCCCCc1ccc(S(=O)(=O)Nc2nncs2)cc1` registered a melting point of 118 to 119 °C.
In turn, `COC(=O)c1cccc2c1ccn2Cc1ccc(OCc2ccc3ccccc3n2)cc1` had a melting point of 128 to 131 °C.
Take `CC(C)Oc1ccc(Cc2cc3cccc(-c4cccc(C(=O)NCCO)c4)c3s2)cn1`: the melting point lay in the range of 106 to 107 °C.
Compound `O=C(Nc1ccccc1I)c1ccccc1` yielded a melting point of 147 to 148 °C.
Regarding `CCc1nnc(-c2ccc(OC)cc2)n1-c1ccc(OC)c(OC)c1`, the melting point worked out at 150 °C.
Turning to `COc1ccc(C2=NN(C(C)(C)C)C(=O)[C@H]3CCCC[C@@H]23)cc1OC` (relative stereo), the melting point lay within 99 to 101 °C.
In the case of `Cn1c2ccccc2c2cc(C(=O)N3CCOCC3)sc21` it was 125 to 127 °C.
`CCOC(=O)c1cn(-c2ccc(F)cc2F)c2nc(OC)c(F)cc2c1=O` gave a melting point of 190 to 192 °C.
Under `NCC(C(=O)O)c1c[nH]c2ccc(F)cc12` (configuration not stated) stands 244 to 245 °C.
Compound `CCOC(=O)C=C(C)NC(=O)Nc1cc(C(=O)OC(C)C)c(Cl)cc1F` returned a melting point of 147 to 150 °C.
`CNS(=O)(=O)c1cc(C(=O)O)cc(N2CCCC2)c1Oc1ccccc1` displayed a melting point of 245 to 248 °C.
As to `CNC(=O)c1cc2c(Oc3ccc(C(=O)NCCN4CCOCC4)cc3)cncc2s1`, the melting point is 226 to 228 °C.
On to `CCOc1ccc(OCC)c(C[C@@H](C(=O)[C@H](Cc2cc(OCC)ccc2OCC)N2C(=O)c3ccccc3C2=O)N2C(=O)c3ccccc3C2=O)c1`, for which the melting point lay in the range of 92 to 93 °C.
In the case of `COC(=O)c1ccc(OC2=C3N=C4CCCCC4=C3C(Cc3ccc(C)cc3)C=C2)o1` (configuration not stated) it was 80 to 81 °C; in that of `O=[N+]([O-])c1ccc2nc3c4ccccc4c4ccccc4c3nc2c1`, 253 to 255 °C; in that of `COc1cccc(C2(CC(=O)O)CNC(=O)C2)c1` (configuration not stated), 144 to 146 °C.
On to `Nc1cc(C(=O)O)cc(OCc2ccc(Cl)cc2)c1C(=O)c1ccccc1`, for which the melting point lay in the range of 248 to 249 °C.
In turn, `CCCCCCCCCCCC(=O)OC(OC(=O)N1CCN(c2cc3c(cc2F)c(=O)c(C(=O)O)cn3CC)CC1)C(=O)OC(C)C` (configuration not stated) displayed a melting point of 106 to 109 °C.
Under `COc1ccc(OCCCCBr)c(C2Sc3cc(Cl)ccc3N(C)C2=O)c1` (configuration not stated) stands 106 to 107 °C.
Regarding `CSc1c(O[C@@H]2CCC[C@H](N)C2)ccc2[nH]ncc12` (relative stereo), the melting point is 112 to 113 °C.
In the case of `O=C1CC(Sc2ccccc2)C(O)(c2ccccc2)C(Sc2ccccc2)C1` (configuration not stated), the melting point was in the range of 126 to 127 °C.
With `O=C(Nc1ccc(Br)c2c1C(=O)c1ccccc1C2=O)c1ccccc1`, the melting point was found to be 300 °C.
Compound `OCCCc1nc(-c2ccccc2)co1` had a melting point of 55 to 56 °C.
The compound `COC[C@@H](NC(C)=O)C(=O)NCc1ccc(N=[N+]=[N-])cc1` had a melting point of 149 to 150 °C.
Under `Cc1ccn2c(C)c(-c3ccc4c(c3)N(C)C(=O)CS4)nc2c1` stands 231 °C; under `CCCCOc1cc(/C=C/C(=O)O)n(Cc2ccc(C(F)(F)F)cc2Cl)n1`, 172 to 174 °C; under `CC(Cc1cccc(Cl)c1)(NC=O)c1ccccc1` (configuration not stated), 108 to 109 °C.
Regarding `O=C(Nc1cscn1)Nc1cccc2c1C1CCCCN1C2=O` (configuration not stated), the melting point is 178 to 180 °C.
